pIC50: −log10 of the molar value.
Tested on: NCI-H510 multicellular tumor spheroid growth, % test/control
Test: Anticancer human tumor NCI-H510 cell line growth inhibition [Asc];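 also: spheroids exposed to agents for 7 days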;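 as to viability, T/C: 100% = DMSO vehicle control wells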
Conditions: for viability, T/C: stronger effect = lower value; active = viability on the fitted dose curve at most 10% of control; inactive = the rest
Procedure, shortened: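 Tumor cells were grown as complex spheroids with human endothelial cells (HUVEC) and human mesenchymal stem cells as stroma. Agents were tested alone and in combination, in half-log steps down from the clinical Cmax, or from 10 microM where Cmax was unknown.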

[1] = curve of first compound, second compound 0.1 µM
[2] = curve of first compound, second compound 0.316 µM
[3] = curve of first compound, second compound 1 µM
[4] = curve of first compound, second compound 3.16 µM
[5] = curve of first compound, second compound 10 µM
[6] = second compound 0.1 µM, first compound 0.000316 µM
[7] = second compound 0.1 µM, first compound 0.001 µM
[8] = second compound 0.1 µM, first compound 0.00316 µM
[9] = second compound 0.1 µM, first compound 0.01 µM
[10] = second compound 0.1 µM, first compound 0.0316 µM
[11] = second compound 0.1 µM, first compound 0.1 µM
[12] = second compound 0.316 µM, first compound 0.000316 µM
[13] = second compound 0.316 µM, first compound 0.001 µM
[14] = second compound 0.316 µM, first compound 0.00316 µM
[15] = second compound 0.316 µM, first compound 0.01 µM
[16] = second compound 0.316 µM, first compound 0.0316 µM
[17] = second compound 0.316 µM, first compound 0.1 µM
[18] = second compound 1 µM, first compound 0.000316 µM
[19] = second compound 1 µM, first compound 0.001 µM
[20] = second compound 1 µM, first compound 0.00316 µM
[21] = second compound 1 µM, first compound 0.01 µM
[22] = second compound 1 µM, first compound 0.0316 µM
[23] = second compound 1 µM, first compound 0.1 µM
[24] = second compound 3.16 µM, first compound 0.0316 µM
[25] = second compound 3.16 µM, first compound 0.1 µM
[26] = second compound 10 µM, first compound 0.0316 µM
[27] = second compound 10 µM, first compound 0.1 µM
[28] = curve of first compound, second compound 0.01 µM
[29] = curve of first compound, second compound 0.0316 µM
[30] = second compound 0.01 µM, first compound 0.00316 µM
[31] = second compound 0.01 µM, first compound 0.01 µM
[32] = second compound 0.01 µM, first compound 0.0316 µM
[33] = second compound 0.01 µM, first compound 0.1 µM
[34] = second compound 0.0316 µM, first compound 0.00316 µM
[35] = second compound 0.0316 µM, first compound 0.01 µM
[36] = second compound 0.0316 µM, first compound 0.0316 µM
[37] = second compound 0.0316 µM, first compound 0.1 µM
[38] = second compound 0.1 µM, first compound 0.316 µM
[39] = second compound 0.1 µM, first compound 1 µM
[40] = second compound 0.316 µM, first compound 0.316 µM
[41] = second compound 0.316 µM, first compound 1 µM
[42] = second compound 1 µM, first compound 0.316 µM
[43] = second compound 1 µM, first compound 1 µM

NC1CCC(NC2CC2c2ccccc2)CC1 (configuration not stated) + Cc1c(S(C)(=O)=O)c(-c2cc(F)cc(N3CCN(c4ccc(NS(=O)(=O)c5ccc(NC(CCN6CCC(C(=O)OCCCP(=O)(O)O)CC6)CSc6ccccc6)c(S(=O)(=O)C(F)(F)F)c5)cc4)CC3)c2)c(-c2ccc(Cl)cc2)n1C(C)C
< 7.00: pIC50 [1] | pIC50 [2] | pIC50 [3] | pIC50 [4] | pIC50 [5]
inactive: viability, T/C [6] 88.8% | viability, T/C [7] 85% | viability, T/C [8] 74.1% | viability, T/C [9] 87.7% | viability, T/C [10] 67.5% | viability, T/C [11] 90.4% | viability, T/C [12] 86.1% | viability, T/C [13] 85.8% | viability, T/C [14] 76.9% | viability, T/C [15] 66.5% | viability, T/C [16] 78.4% | viability, T/C [17] 97.9% | viability, T/C [18] 116% | viability, T/C [19] 77.8% | viability, T/C [20] 63.8% | viability, T/C [21] 67.1% | viability, T/C [22] 64% | viability, T/C [23] 59.6% | viability, T/C (second compound 3.16 µM, first compound 0.000316 µM) 81% | viability, T/C (second compound 3.16 µM, first compound 0.001 µM) 80.2% | viability, T/C (second compound 3.16 µM, first compound 0.00316 µM) 74.8% | viability, T/C (second compound 3.16 µM, first compound 0.01 µM) 67.1% | viability, T/C [24] 80.6% | viability, T/C [25] 69.9% | viability, T/C (second compound 10 µM, first compound 0.000316 µM) 66.8% | viability, T/C (second compound 10 µM, first compound 0.001 µM) 63.1% | viability, T/C (second compound 10 µM, first compound 0.00316 µM) 63.6% | viability, T/C (second compound 10 µM, first compound 0.01 µM) 91% | viability, T/C [26] 102% | viability, T/C [27] 36.1%

O=C(c1ccc(F)c(F)c1Nc1ccc(I)cc1F)N1CC(O)([C@@H]2CCCCN2)C1 + CNC(C)C(=O)NC1CN(S(=O)(=O)c2cccc(S(=O)(=O)N3CCC4CCC(C(=O)NC(c5ccccc5)c5ccccc5)N4C(=O)C(NC(=O)C(C)NC)C3)c2)CCC2CCC(C(=O)NC(c3ccccc3)c3ccccc3)N2C1=O
< 6.00: pIC50 [28] | pIC50 [29] | pIC50 [1] | pIC50 [2] | pIC50 [3]
inactive: viability, T/C [30] 98.5% | viability, T/C [31] 113% | viability, T/C [32] 102% | viability, T/C [33] 101% | viability, T/C (second compound 0.01 µM, first compound 0.316 µM) 102% | viability, T/C (second compound 0.01 µM, first compound 1 µM) 79.6% | viability, T/C [34] 94.7% | viability, T/C [35] 103% | viability, T/C [36] 88% | viability, T/C [37] 102% | viability, T/C (second compound 0.0316 µM, first compound 0.316 µM) 100% | viability, T/C (second compound 0.0316 µM, first compound 1 µM) 90.3% | viability, T/C [8] 112% | viability, T/C [9] 95.2% | viability, T/C [10] 104% | viability, T/C [11] 97.2% | viability, T/C [38] 92.1% | viability, T/C [39] 101% | viability, T/C [14] 102% | viability, T/C [15] 101% | viability, T/C [16] 104% | viability, T/C [17] 105% | viability, T/C [40] 100% | viability, T/C [41] 108% | viability, T/C [20] 109% | viability, T/C [21] 111% | viability, T/C [22] 101% | viability, T/C [23] 90.2% | viability, T/C [42] 99.7% | viability, T/C [43] 84.7%

Cc1c(S(C)(=O)=O)c(-c2cc(F)cc(N3CCN(c4ccc(NS(=O)(=O)c5ccc(NC(CCN6CCC(C(=O)OCCCP(=O)(O)O)CC6)CSc6ccccc6)c(S(=O)(=O)C(F)(F)F)c5)cc4)CC3)c2)c(-c2ccc(Cl)cc2)n1C(C)C (configuration not stated)
< 5.00: pIC50 (compound alone, run of 10/11/2022)
inactive: viability, T/C (compound 1 µM) 95.2% [middle of 14 runs]

C=C(F)C(=O)N1CCN(c2nc(OCC3CCCN3C)nc3c2CCN(c2cccc4cccc(Cl)c24)C3)CC1CC#N (configuration not stated) + Cc1c(S(C)(=O)=O)c(-c2cc(F)cc(N3CCN(c4ccc(NS(=O)(=O)c5ccc(NC(CCN6CCC(C(=O)OCCCP(=O)(O)O)CC6)CSc6ccccc6)c(S(=O)(=O)C(F)(F)F)c5)cc4)CC3)c2)c(-c2ccc(Cl)cc2)n1C(C)C
inactive: viability, T/C [10] 103% | viability, T/C [11] 85.7% | viability, T/C [38] 86% | viability, T/C [39] 33.7% | viability, T/C [16] 105% | viability, T/C [17] 95% | viability, T/C [40] 86.2% | viability, T/C [41] 48.9% | viability, T/C [22] 113% | viability, T/C [23] 125% | viability, T/C [42] 99.8% | viability, T/C [43] 34.8% | viability, T/C [24] 118% | viability, T/C [25] 110% | viability, T/C (second compound 3.16 µM, first compound 0.316 µM) 94.1% | viability, T/C (second compound 3.16 µM, first compound 1 µM) 52.2% | viability, T/C [26] 86.2% | viability, T/C [27] 103% | viability, T/C (second compound 10 µM, first compound 0.316 µM) 80.6% | viability, T/C (second compound 10 µM, first compound 1 µM) 15.6%
active: viability, T/C (second compound 0.1 µM, first compound 3.16 µM) 0.61% | viability, T/C (second compound 0.1 µM, first compound 10 µM) 0.12% | viability, T/C (second compound 0.316 µM, first compound 3.16 µM) 0.67% | viability, T/C (second compound 0.316 µM, first compound 10 µM) 0.11% | viability, T/C (second compound 1 µM, first compound 3.16 µM) 0.13% | viability, T/C (second compound 1 µM, first compound 10 µM) 0.11% | viability, T/C (second compound 3.16 µM, first compound 3.16 µM) 0.11% | viability, T/C (second compound 3.16 µM, first compound 10 µM) 0.14% | viability, T/C (second compound 10 µM, first compound 3.16 µM) 0.8% | viability, T/C (second compound 10 µM, first compound 10 µM) 0.19%
6.04: pIC50 [2]
6.12: pIC50 [3]
6.16: pIC50 [1]
6.02: pIC50 [4]
6.26: pIC50 [5]

Cn1ncnc1[C@H]1c2n[nH]c(=O)c3cc(F)cc(c23)N[C@@H]1c1ccc(F)cc1 + CNC(C)C(=O)NC1CN(S(=O)(=O)c2cccc(S(=O)(=O)N3CCC4CCC(C(=O)NC(c5ccccc5)c5ccccc5)N4C(=O)C(NC(=O)C(C)NC)C3)c2)CCC2CCC(C(=O)NC(c3ccccc3)c3ccccc3)N2C1=O
< 7.00: pIC50 [28] | pIC50 [29] | pIC50 [1] | pIC50 [2] | pIC50 [3]
inactive: viability, T/C (second compound 0.01 µM, first compound 0.000316 µM) 102% | viability, T/C (second compound 0.01 µM, first compound 0.001 µM) 101% | viability, T/C [30] 105% | viability, T/C [31] 104% | viability, T/C [32] 72.2% | viability, T/C [33] 85.8% | viability, T/C (second compound 0.0316 µM, first compound 0.000316 µM) 96% | viability, T/C (second compound 0.0316 µM, first compound 0.001 µM) 102% | viability, T/C [34] 97% | viability, T/C [35] 97.2% | viability, T/C [36] 78% | viability, T/C [37] 98.4% | viability, T/C [6] 110% | viability, T/C [7] 97% | viability, T/C [8] 104% | viability, T/C [9] 98.2% | viability, T/C [10] 72.1% | viability, T/C [11] 91.4% | viability, T/C [12] 113% | viability, T/C [13] 108% | viability, T/C [14] 96.6% | viability, T/C [15] 96% | viability, T/C [16] 56.8% | viability, T/C [17] 93.6% | viability, T/C [18] 110% | viability, T/C [19] 106% | viability, T/C [20] 106% | viability, T/C [21] 97.5% | viability, T/C [22] 92.3% | viability, T/C [23] 91.1%
